Test results from patent publication US11696898B2, “Halogenated ether compounds and methods of inducing anesthesia” (The Regents of the University of California, priority 2014, dated 2023).
Entries after “also recorded” stand apart in the source; their conditions may differ. Where two headings read alike, the source gives them in different places.

How the values were obtained:
NMDA receptors = assay: NMDA receptor modulation at a saturated aqueous phase concentration; type: cell-based
mice = assay: General anesthesia in mice (MAC for loss of righting reflex); type: in vivo; conditions: inhaled, closed microcircuit
Experimental: In a method to measure the minimum alveolar concentration (MAC) for Loss Of Righting Reflex (MACLORR), for assessing the performance of a compound as a general anesthetic, mice were placed in a 3.5 cm diameter, 14.5 cm long acrylic cylinder connected on either end via unidirectional valves to a closed microcircuit containing a carbon dioxide absorbent vessel, latex balloon breathing bag, sampling port, and 100 mL glass syringe-driven piston. […] The procedures for measuring MACLORR and MAC, as well as general methods for measuring agent concentrations by gas chromatography, have been described in Deady J E, Koblin D D, Eger E I, 2nd, Heavner J E, D'Aoust B: Anesthetic potencies and the unitary theory of narcosis. Anesth Analg 1981; 60: 380-4; Brosnan R J, Thiesen R: Increased NMDA receptor inhibition at an increased Sevoflurane MAC. BMC Anesthesiol 2012; 12: 9; and Brosnan R J: GABA(A) receptor antagonism increases NMDA receptor inhibition by isoflurane at a minimum alveolar concentration. Vet Anaesth Analg 2011; 38: 231-9, the disclosures of which are incorporated by reference in their entireties.

Compound	modulation/inhibition of NMDA receptors (NMDA receptors; listed as 1-bromo-1,1,2-trifluoro-2-(trifluoromethoxy)-ethane)	general anesthesia in mice (mice)	modulation/inhibition of NMDA receptors (NMDA receptors)
FC(OC(F)(F)F)C(F)(F)Br (stereo not drawn) [Ethane, 1-bromo-1,1,2-trifluoro-2-(trifluoromethoxy)-]	devoid of NMDA receptor effects; also recorded: does not modulate NMDA receptors	produced general anesthesia	–
COC(F)(C(F)(F)F)C(F)(F)F [Propane, 1,1,1,2,3,3,3-heptafluoro-2-methoxy-]	–	–	inhibits NMDA receptors
